Consider six molecules from article PMC7280531, “A PROTAC peptide induces durable β-catenin degradation and suppresses Wnt-dependent intestinal cancer” (Cell Discovery, 2020).

For data set [1], the target named is T1, β-catenin (Homo sapiens, UniProt P35222).
T1 sequence (P35222 1-781): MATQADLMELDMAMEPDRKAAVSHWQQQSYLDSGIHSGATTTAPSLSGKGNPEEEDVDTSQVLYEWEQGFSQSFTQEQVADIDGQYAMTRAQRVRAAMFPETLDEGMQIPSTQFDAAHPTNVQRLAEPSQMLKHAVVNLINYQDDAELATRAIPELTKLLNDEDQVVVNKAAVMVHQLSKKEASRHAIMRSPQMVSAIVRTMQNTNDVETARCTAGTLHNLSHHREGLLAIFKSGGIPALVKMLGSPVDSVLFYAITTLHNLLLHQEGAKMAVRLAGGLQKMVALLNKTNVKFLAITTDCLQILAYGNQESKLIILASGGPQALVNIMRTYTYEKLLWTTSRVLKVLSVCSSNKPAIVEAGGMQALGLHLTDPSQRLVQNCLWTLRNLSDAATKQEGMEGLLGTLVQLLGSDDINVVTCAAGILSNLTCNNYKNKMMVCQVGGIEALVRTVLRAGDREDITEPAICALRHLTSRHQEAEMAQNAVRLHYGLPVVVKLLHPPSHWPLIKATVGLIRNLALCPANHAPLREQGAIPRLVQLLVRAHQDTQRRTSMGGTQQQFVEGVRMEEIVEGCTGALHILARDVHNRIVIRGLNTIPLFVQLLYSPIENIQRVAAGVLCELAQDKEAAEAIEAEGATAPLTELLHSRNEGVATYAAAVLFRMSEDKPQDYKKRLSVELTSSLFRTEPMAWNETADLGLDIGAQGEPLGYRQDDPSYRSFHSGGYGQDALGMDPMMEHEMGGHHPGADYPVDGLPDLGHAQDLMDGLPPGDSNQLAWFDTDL
Description: β-catenin immunoblotting / immunoprecipitation in HEK293T cells.
Description: The relative band intensity was quantified with ImageJ and normalized to GAPDH.
For immunoprecipitation, the cells were lysed in TNE lysis buffer (50 mM Tris-HCl, pH 8.0, 150 mM NaCl, 1% Nonidet P-40, and protease inhibitor cocktail). […] After 18,000×g centrifugation for 10 min, the lysates were immunoprecipitated with specific antibody and protein A-Sepharose beads and then washed the beads with TNE buffer for three times before immunoblotting.

The subject of data set [2] is β-catenin. Description: β-catenin immunoblotting in colorectal cancer cells (HCT116, SW480, LoVo). The conditions noted are these: 50 μM xStAx-VHLL, 24 h. Type of data set: cell-based. The protocol:
Relative
β-catenin protein level was quantified with ImageJ and normalized to GAPDH. Data […]
(b) LoVo cells were treated with 50 μM xStAx (xS), 50 μM
immunoblotting. (c, d) LoVo (c) and SW480 (d) cells were treated with different

The next data set deals with APC^−/− organoids. Put plainly: APC^−/− mouse intestinal organoid culture. Type of data set: cell-based. The note with it: 10 μM MSAB or 50 μM xStAx-VHLL, 4 days.
For another data set, the target named is T2, β-catenin (133-665) (Homo sapiens, UniProt P35222).
T2 sequence (P35222 133-665): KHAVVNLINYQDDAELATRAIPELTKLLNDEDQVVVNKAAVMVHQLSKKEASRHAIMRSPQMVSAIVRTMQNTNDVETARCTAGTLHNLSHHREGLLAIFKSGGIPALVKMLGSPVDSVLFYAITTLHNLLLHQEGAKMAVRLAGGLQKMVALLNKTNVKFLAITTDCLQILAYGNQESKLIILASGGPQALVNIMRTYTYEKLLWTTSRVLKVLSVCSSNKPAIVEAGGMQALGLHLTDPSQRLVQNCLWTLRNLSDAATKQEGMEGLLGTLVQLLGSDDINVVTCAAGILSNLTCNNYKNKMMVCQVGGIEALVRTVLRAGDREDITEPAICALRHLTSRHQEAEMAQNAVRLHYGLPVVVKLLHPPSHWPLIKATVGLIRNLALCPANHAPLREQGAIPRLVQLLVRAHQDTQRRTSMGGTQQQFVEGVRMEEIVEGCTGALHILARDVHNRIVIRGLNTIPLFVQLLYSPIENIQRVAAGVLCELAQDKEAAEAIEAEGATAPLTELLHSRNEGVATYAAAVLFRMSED
Put plainly: Isothermal titration calorimetry (ITC) of peptides with purified β-catenin.

The conditions of data set [3]: cited from earlier work. An excerpt: Peptide stapling chemistry developed by Verdine and coworkers, takes advantage of ruthenium-catalyzed metathesis to crosslink the side chains of paired anchoring residues at suitable positions, and has been successfully applied to design various peptide inhibitors with improved proteolytic stability, membrane permeability, and thus biological activity[11],[12]. Modeled after the same Axin-derived peptide motif, we and Verdine la ... || There is more space for the improvement of the working efficacy of xStAx-VHLL. The VHL peptide ligand inserted in this study consists of natural amino acids, which could be degraded once the PROTAC peptide enters the cell. Non-natural residues substitution instead of original ones, such as reported hydroxyproline to replace regular proline[31],[32], could be an effective approach to enhance the proteolytic resistance of PROTAC. It was previously reported that peptide double-stapling at both N-terminals and C-terminals rather than single stapling conferred striking protease resistance upon the ...

Where a SMILES comes first, the peptide text is derived from it. Bridges are numbered along the chain shown (N, C = ends). [ ]: non-standard residue; d: D form. The star is where a group is joined. R8 = C=CCCCCCC[C@@](C)(N)C(=O)O; S5 = C=CCCC[C@](C)(N)C(=O)O; Cbz = O=C(OCc1ccccc1)*; Ahx = NCCCCCC(=O)O

Description for β-catenin (133-665): The binding ability of the peptides with purified
β-catenin protein in vitro.
(a) Isothermal titration calorimetry (ITC) analysis to measure the interaction between
Biotinylated peptides were incubated with streptavidin beads and then employed to
The input β-catenin protein level
was stained with Coomassie brilliant blue. The pulled down β-catenin was
immunoblotted with anti-His antibody, and relative band intensity was quantified.

Regarding `CC(C)C[C@@H](C=O)NC(=O)[C@H](CC(C)C)NC(=O)[C@H](CC(C)C)NC(=O)OCc1ccccc1` [MG132, reference compound] (Cbz-Leu-Leu-Leu-aldehyde), the “effect of proteasome inhibitor on xStAx-VHLL-induced β-catenin degradation” value on β-catenin [1] (peptides 70 μM and MG132 10 μM, 16 h) is on record as “blocked β-catenin degradation”.

`Cc1ncsc1-c1ccc(CNC(=O)[C@@H]2C[C@@H](O)CN2C(=O)[C@@H](NC(=O)C2(C#N)CC2)C(C)(C)C)cc1` [VH-298, reference compound]: the “effect of VHL ligase inhibitor on xStAx-VHLL-mediated β-catenin degradation” value at β-catenin [1] (Wnt3a CM, 70 μM xStAx-VHLL, 100 μM inhibitor, 24 h) is given as “blocked it”; with β-catenin [2] (LoVo, 100 μM inhibitor), “blocked it”.

Regarding `COC(=O)c1cccc(NS(=O)(=O)c2ccc(C)cc2)c1` [MSAB, reference compound], in the data set on APC^−/− organoids, the “APC^−/− organoid survival, MSAB versus xStAx-VHLL” value is “minimal effect”. The “β-catenin protein level, MSAB versus xStAx-VHLL” value is listed as “decreased β-catenin protein to a comparable level” on β-catenin [1] (10 μM MSAB, 50 μM xStAx-VHLL (legend: 70 μM, Wnt3a CM), 24 h); “decreased β-catenin protein to a comparable level” in the data set with β-catenin [2] (HCT116 and SW480, 10 μM MSAB); “had no effect” in the data set with β-catenin [2] (LoVo, 10 μM MSAB). For the same molecule, the “β-catenin level after wash-out of the drug” value on β-catenin [1] (MSAB 10 μM or xStAx-VHLL 70 μM 24 h, then fresh medium 24 or 48 h) is “restored after 24 h”.

Regarding `CC[C@H](C)[C@@H]1NC(=O)[C@](C)(NC(=O)[C@H](CCC(N)=O)NC(=O)[C@@H]2CCCN2C(C)=O)CCCCCCC=CCCC[C@@](C)(C(=O)N[C@@H](CCCNC(=N)N)C(=O)N[C@H](C(=O)N[C@@H](CCSC)C(=O)N[C@@H](CCCCN)C(N)=O)C(C)C)NC(=O)[C@H](C(C)C)NC(=O)[C@H](Cc2c[nH]cn2)NC(=O)[C@H](CCC(N)=O)NC(=O)[C@H](CC(=O)O)NC(=O)[C@H](CC(C)C)NC1=O` [SAHPA1, reference compound] (Ac-PQ[R8]ILDQHV[S5]RVMK-NH2; staple 3-10), the Kd on β-catenin (133-665) was 38 µM. Besides, the “ability to penetrate the cell membrane” value in data set [3] is reported as “capable of penetrating the cell membrane”.

For `CC[C@H](C)[C@@H]1NC(=O)[C@@](C)(NC(=O)[C@H](CCCNC(=N)N)NC(=O)[C@@H]2CCCN2C(=O)[C@H](Cc2c[nH]c3ccccc23)NC(=O)[C@H](CCCNC(=N)N)NC(=O)[C@H](CCCNC(=N)N)NC(C)=O)CCCC=CCCC[C@@](C)(C(=O)N[C@@H](Cc2c[nH]cn2)C(=O)N[C@H](C(=O)N[C@@H](CCCNC(=N)N)C(=O)N[C@@H](CCCNC(=N)N)C(=O)N[C@H](C(=O)N[C@@H](Cc2c[nH]c3ccccc23)C(=O)N[C@@H](CCCNC(=N)N)C(N)=O)C(C)C)C(C)C)NC(=O)[C@H](CC(=O)O)NC(=O)[C@H](CC(C)C)NC1=O` [xStAx] (Ac-RRWPR[S5]ILD[S5]HVRRVWR-NH2; staple 6-10), in data set [3], the “ability to penetrate the cell membrane” value is “capable of penetrating the cell membrane”.

As for `CC[C@H](C)[C@@H]1NC(=O)[C@](C)(NC(=O)[C@H](CCC(N)=O)NC(=O)[C@@H]2CCCN2C(C)=O)CCCCCCC=CCCC[C@@](C)(C(=O)N[C@@H](CCCNC(=N)N)C(=O)N[C@H](C(=O)N[C@@H](CCSC)C(=O)N[C@@H](CCCCN)C(=O)NCCCCCC(=O)N[C@@H](C)C(=O)N[C@@H](CC(C)C)C(=O)N[C@@H](C)C(=O)N2CCC[C@H]2C(=O)N[C@@H](Cc2ccc(O)cc2)C(=O)N[C@H](C(=O)N2CCC[C@H]2C(N)=O)[C@@H](C)CC)C(C)C)NC(=O)[C@H](C(C)C)NC(=O)[C@H](Cc2c[nH]cn2)NC(=O)[C@H](CCC(N)=O)NC(=O)[C@H](CC(=O)O)NC(=O)[C@H](CC(C)C)NC1=O` [SAHPA1-VHLL] (Ac-PQ[R8]ILDQHV[S5]RVMK[Ahx]ALAPYIP-NH2; staple 3-10), the affinity at β-catenin (133-665), expressed as Kd, was 55 µM.
